Laboratory results as given in the NIST ThermoML archive (doi:10.1021/je700640r).
Numbers after ± are expanded uncertainties.

Experiment: activity coefficient (dimensionless); of the first substance listed, at infinite dilution; xn = mol fraction of the nth substance listed
Conditions: Liquid, Chromatography, x1 = 0

Row | SMILES | activity coefficient (303.15 K) | activity coefficient (313.15 K) | activity coefficient (323.15 K) | activity coefficient (333.15 K) | activity coefficient (343.15 K) | activity coefficient (353.15 K) | activity coefficient (363.15 K)
1 | C1COCCO1 [1,4-dioxane] + CCC[n+]1ccn(C)c1C.F[B-](F)(F)F | 2.96 ± 0.26 | 3.08 ± 0.27 | 3.14 ± 0.27 | 3.17 ± 0.27 | 3.24 ± 0.28 | 3.29 ± 0.28 | 3.35 ± 0.29
2 | CC(C)CCO [3-methylbutan-1-ol] + CCC[n+]1ccn(C)c1C.F[B-](F)(F)F |  | 4.91 ± 0.42 | 4.46 ± 0.39 | 4.18 ± 0.36 | 3.78 ± 0.33 | 3.42 ± 0.29 | 3.02 ± 0.26
3 | CC(C)=O [acetone] + CCC[n+]1ccn(C)c1C.F[B-](F)(F)F | 2.47 ± 0.21 | 2.53 ± 0.22 | 2.55 ± 0.22 | 2.61 ± 0.23 | 2.66 ± 0.23 | 2.71 ± 0.23 | 2.74 ± 0.24
4 | CC#N [acetonitrile] + CCC[n+]1ccn(C)c1C.F[B-](F)(F)F | 1.4 ± 0.12 | 1.39 ± 0.12 | 1.38 ± 0.12 | 1.37 ± 0.12 | 1.36 ± 0.11 | 1.35 ± 0.11 | 1.34 ± 0.11
5 | CCOC(C)=O [ethyl acetate] + CCC[n+]1ccn(C)c1C.F[B-](F)(F)F | 8.86 ± 0.77 | 8.84 ± 0.76 | 8.79 ± 0.76 | 8.75 ± 0.76 | 8.71 ± 0.75 | 8.66 ± 0.75 | 8.63 ± 0.74
6 | CO [methanol] + CCC[n+]1ccn(C)c1C.F[B-](F)(F)F | 0.898 ± 0.074 | 0.869 ± 0.072 | 0.823 ± 0.069 | 0.777 ± 0.065 | 0.713 ± 0.061 | 0.684 ± 0.059 | 0.642 ± 0.056
7 | CCCCCO [pentan-1-ol] + CCC[n+]1ccn(C)c1C.F[B-](F)(F)F |  | 6.2 ± 0.54 | 5.31 ± 0.46 | 4.65 ± 0.4 | 4.05 ± 0.35 | 3.68 ± 0.32 | 3.12 ± 0.27
8 | CC(C)O [propan-2-ol] + CCC[n+]1ccn(C)c1C.F[B-](F)(F)F | 2.62 ± 0.23 | 2.53 ± 0.22 | 2.45 ± 0.21 | 2.33 ± 0.2 | 2.21 ± 0.19 | 2.04 ± 0.18 | 1.86 ± 0.16
9 | ClC(Cl)(Cl)Cl [tetrachloromethane] + CCC[n+]1ccn(C)c1C.F[B-](F)(F)F | 8.11 ± 0.7 | 8.63 ± 0.74 | 9.13 ± 0.79 | 9.58 ± 0.83 | 10 ± 0.86 | 10.4 ± 0.9 | 10.7 ± 0.92
10 | C1CCOC1 [tetrahydrofuran] + CCC[n+]1ccn(C)c1C.F[B-](F)(F)F | 6.03 ± 0.52 | 5.98 ± 0.52 | 5.95 ± 0.51 | 5.92 ± 0.51 | 5.88 ± 0.51 | 5.82 ± 0.5 | 5.78 ± 0.5

Next, values leading:

Row | activity coefficient (303.15 K) | activity coefficient (313.15 K) | activity coefficient (323.15 K) | activity coefficient (333.15 K) | activity coefficient (343.15 K) | activity coefficient (353.15 K) | activity coefficient (363.15 K) | SMILES
11 | 4.17 ± 0.36 | 3.87 ± 0.33 | 3.47 ± 0.3 | 3.07 ± 0.26 | 2.62 ± 0.23 | 2.38 ± 0.2 | 2.03 ± 0.17 | CC(C)CO [2-methyl-1-propanol] + CCC[n+]1ccn(C)c1C.F[B-](F)(F)F
12 | 5.05 ± 0.44 | 4.67 ± 0.4 | 4.2 ± 0.36 | 3.73 ± 0.32 | 3.2 ± 0.28 | 2.67 ± 0.23 | 2.27 ± 0.2 | CCCCO [butan-1-ol] + CCC[n+]1ccn(C)c1C.F[B-](F)(F)F
13 | 4.28 ± 0.37 | 3.99 ± 0.34 | 3.67 ± 0.32 | 3.3 ± 0.28 | 2.87 ± 0.25 | 2.5 ± 0.22 | 2.13 ± 0.18 | CCC(C)O (configuration not stated) [butan-2-ol] + CCC[n+]1ccn(C)c1C.F[B-](F)(F)F
14 | 1.67 ± 0.14 | 1.74 ± 0.15 | 1.84 ± 0.16 | 1.93 ± 0.17 | 2.01 ± 0.17 | 2.09 ± 0.18 | 2.17 ± 0.19 | ClCCl [dichloromethane] + CCC[n+]1ccn(C)c1C.F[B-](F)(F)F
15 | 1.86 ± 0.16 | 1.68 ± 0.14 | 1.6 ± 0.14 | 1.51 ± 0.13 | 1.44 ± 0.12 | 1.35 ± 0.11 | 1.18 ± 0.098 | CCO [ethanol] + CCC[n+]1ccn(C)c1C.F[B-](F)(F)F
16 | 3.26 ± 0.28 | 3.01 ± 0.26 | 2.81 ± 0.24 | 2.59 ± 0.22 | 2.37 ± 0.2 | 2.19 ± 0.19 | 1.88 ± 0.16 | CCCO [propan-1-ol] + CCC[n+]1ccn(C)c1C.F[B-](F)(F)F
17 | 1.14 ± 0.094 | 1.29 ± 0.11 | 1.4 ± 0.12 | 1.52 ± 0.13 | 1.65 ± 0.14 | 1.78 ± 0.15 | 1.91 ± 0.16 | ClC(Cl)Cl [trichloromethane] + CCC[n+]1ccn(C)c1C.F[B-](F)(F)F
